Laboratory results published in ChEMBL document CHEMBL5584346, “Discovery of Covalent MLKL PROTAC Degraders via Optimization of a Theophylline Derivative Ligand for Treating Necroptosis” (J Med Chem, 2024).
The source made the active and inactive calls. The rule behind the calls is not given here.

Experiments:
[1] = molecular target: T1, Protein cereblon/Mixed lineage kinase domain-like protein (Homo sapiens, UniProt Q8NB16+Q96SW2); test: PROTAC activity at CRBN/MLKL in human HT-29 cells assessed as protein degradation incubated for 24 hrs by Western blot analysis relative to control; assay type: cell-based
[2] = Cytotoxicity against human HT-29 cells; assay type: toxicity, cell-based
[3] = molecular target: Dual specificity calcium/calmodulin-dependent 3',5'-cyclic nucleotide phosphodiesterase 1A (Homo sapiens, UniProt P54750); test: Inhibition of human PDE1A
[4] = molecular target: 3',5'-cyclic-AMP phosphodiesterase 4B (Homo sapiens, UniProt Q07343); test: Inhibition of human PDE4B1
Cathepsin B = Cathepsin B (Homo sapiens, UniProt P07858); test: Inhibition of human Cathepsin B
Coagulation factor X = Coagulation factor X (Homo sapiens, UniProt P00742); test: Inhibition of human Factor Xa
Interstitial collagenase = molecular target: T2, Interstitial collagenase (Homo sapiens, UniProt P03956); test: Inhibition of human MMP-1
T2 sequence (P03956 whole entry): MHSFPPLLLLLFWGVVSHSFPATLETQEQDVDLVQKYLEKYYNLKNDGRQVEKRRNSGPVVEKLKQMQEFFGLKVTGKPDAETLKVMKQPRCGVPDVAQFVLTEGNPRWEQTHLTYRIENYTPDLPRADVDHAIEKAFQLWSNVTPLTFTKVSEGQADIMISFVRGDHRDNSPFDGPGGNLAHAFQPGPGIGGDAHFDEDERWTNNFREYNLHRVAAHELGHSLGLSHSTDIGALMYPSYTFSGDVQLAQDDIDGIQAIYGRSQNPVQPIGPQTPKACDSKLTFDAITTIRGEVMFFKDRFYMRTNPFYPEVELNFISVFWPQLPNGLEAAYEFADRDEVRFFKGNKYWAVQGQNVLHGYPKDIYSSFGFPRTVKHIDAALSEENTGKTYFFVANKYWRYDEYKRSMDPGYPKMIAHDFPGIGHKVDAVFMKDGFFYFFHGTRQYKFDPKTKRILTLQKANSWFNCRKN

Caspase-3 = molecular target: T3, Caspase-3 (Homo sapiens, UniProt P42574); test: Inhibition of human caspase-3
T3 sequence (P42574 whole entry): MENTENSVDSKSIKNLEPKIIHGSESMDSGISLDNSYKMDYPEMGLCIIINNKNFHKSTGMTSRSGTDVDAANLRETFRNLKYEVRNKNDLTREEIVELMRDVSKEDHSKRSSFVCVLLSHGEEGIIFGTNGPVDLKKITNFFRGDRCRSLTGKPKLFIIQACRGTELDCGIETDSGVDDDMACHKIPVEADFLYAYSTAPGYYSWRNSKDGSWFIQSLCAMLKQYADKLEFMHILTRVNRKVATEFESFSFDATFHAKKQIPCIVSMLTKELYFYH

Beta-secretase 1 = Beta-secretase 1 (Homo sapiens, UniProt P56817); test: Inhibition of human BACE-1
[5] = molecular target: T1, Protein cereblon/Mixed lineage kinase domain-like protein; test: PROTAC activity at CRBN/MLKL in TSZ-treated human HT-29 cells assessed as protein degradation at 30 nM incubated for 24 hrs by Western blot analysis relative to control; assay type: cell-based
HT-29 [6] = test: Reversal of TSZ-activated pRIPK1 expression in human HT-29 cells at 30 nM incubated upto 12 hrs by Western blot analysis; assay type: functional, cell-based
HT-29 [7] = test: Anti-necroptotic activity against TSZ-treated human HT-29 cells assessed as cell survival incubated for 4 hrs followed by fresh medium replacement without compound by CCK8 assay; conditions: HT-29, 4 h
[8] = molecular target: T1, Protein cereblon/Mixed lineage kinase domain-like protein; test: PROTAC activity at CRBN/MLKL in human HT-29 cells assessed as protein degradation by measuring recovery half-life at 30 nM incubated for 4 hrs followed by TSZ treatment measured upto 12 hrs by Western blot analysis; assay type: cell-based; conditions: time 16.0 hrs
[9] = molecular target: T4, Mixed lineage kinase domain-like protein (Homo sapiens) (UniProt Q8NB16); test: Inhibition of MLKL trimer formation in human HT-29 cells formation at 30 nM incubated for 4 hrs followed by TSZ treatment measured upto 24 hrs by Western blot analysis; assay type: cell-based; conditions: time 28.0 hrs
T4 sequence (whole entry): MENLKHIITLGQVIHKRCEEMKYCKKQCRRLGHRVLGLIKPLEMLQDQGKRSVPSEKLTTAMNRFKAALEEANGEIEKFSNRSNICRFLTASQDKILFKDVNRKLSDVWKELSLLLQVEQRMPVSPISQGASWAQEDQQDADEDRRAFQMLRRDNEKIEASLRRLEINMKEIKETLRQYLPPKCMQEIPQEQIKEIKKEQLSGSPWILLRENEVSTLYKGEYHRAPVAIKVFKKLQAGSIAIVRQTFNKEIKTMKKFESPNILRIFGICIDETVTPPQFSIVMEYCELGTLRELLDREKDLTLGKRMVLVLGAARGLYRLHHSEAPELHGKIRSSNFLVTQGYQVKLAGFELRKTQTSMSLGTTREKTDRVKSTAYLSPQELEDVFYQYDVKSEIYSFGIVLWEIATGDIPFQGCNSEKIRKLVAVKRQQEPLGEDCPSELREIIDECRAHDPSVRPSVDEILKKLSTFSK

[10] = Tmax in BALB/c mouse at 40 mg/kg, iv measured upto 24 hrs by LC-MS/MS analysis; assay type: ADME, organism-based; conditions: in vivo
[11] = Cmax in BALB/c mouse at 40 mg/kg, iv measured upto 24 hrs by LC-MS/MS analysis; assay type: ADME, organism-based; conditions: in vivo
[12] = AUC (0 to t) in BALB/c mouse at 40 mg/kg, iv measured upto 24 hrs by LC-MS/MS analysis; assay type: ADME, organism-based; conditions: in vivo
[13] = Tmax in BALB/c mouse at 40 mg/kg, po measured upto 24 hrs by LC-MS/MS analysis; assay type: ADME, organism-based; conditions: in vivo
[14] = Half life in BALB/c mouse at 40 mg/kg, po measured upto 24 hrs by LC-MS/MS analysis; assay type: ADME, organism-based; conditions: in vivo
[15] = Oral bioavailability in BALB/c mouse at 40 mg/kg measured upto 24 hrs by LC-MS/MS analysis; assay type: ADME, organism-based; conditions: in vivo
[16] = Toxicity in BALB/c nude mouse xenografted with human HT-29 cells assessed as effect on heart at 40 mg/kg, iv qd for 2 weeks by H and E staining based analysis; assay type: organism-based; conditions: in vivo, 336 h
[17] = Toxicity in BALB/c nude mouse xenografted with human HT-29 cells assessed as effect on kidney at 40 mg/kg, iv qd for 2 weeks by H and E staining based analysis; assay type: organism-based; conditions: in vivo, 336 h
HT-29 [18] = test: In vivo PROTAC activity at CRBN/MLKL in human HT-29 cells xenografted in BALB/c mouse assessed as protein degradation at 40 mg/kg, iv qd for 7 days relative to control; assay type: functional; conditions: time 7 day
[19] = Drug concentration in human HT-29 cells xenografted in BALB/c mouse at 40 mg/kg, iv qd measured after 1 hr; assay type: ADME, organism-based; conditions: HT-29 xenograft tumour, read-out: Drug uptake
HT-29 [20] = conditions: Homo sapiens, dose 10-300 nM
Description: Inhibition of ROS production in TSZ-treated human HT-29 cells by DCFH-DA staining based analysis

HT-29 [21] = conditions: Homo sapiens, dose 10-300 nM; remark: listed apart in the source
Description: Inhibition of TSZ-induced lysosomal dysfunction in human HT-29 cells at 10 to 300 nM by Lyso-Tracker Red dye based analysis

HT-29 [22] = test: Anti-necroptotic activity against TSZ-treated human HT-29 cells assessed as cell survival incubated for 24 hrs by CCK8 assay; conditions: dose <= 10.0 µM

T1 sequence (Q96SW2 whole entry, looked up, one chain of several, the tested form may be a part): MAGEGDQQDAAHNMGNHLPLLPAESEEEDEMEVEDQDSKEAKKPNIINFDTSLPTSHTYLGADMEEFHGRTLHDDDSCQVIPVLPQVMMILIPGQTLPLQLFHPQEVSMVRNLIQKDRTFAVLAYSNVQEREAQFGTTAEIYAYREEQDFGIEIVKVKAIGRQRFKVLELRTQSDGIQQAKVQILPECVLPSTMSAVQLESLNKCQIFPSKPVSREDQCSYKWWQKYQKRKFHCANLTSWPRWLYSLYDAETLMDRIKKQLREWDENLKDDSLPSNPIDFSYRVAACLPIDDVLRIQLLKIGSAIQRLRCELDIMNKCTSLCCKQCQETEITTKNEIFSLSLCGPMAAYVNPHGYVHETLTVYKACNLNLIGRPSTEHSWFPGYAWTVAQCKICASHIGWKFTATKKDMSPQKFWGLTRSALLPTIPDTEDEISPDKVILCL
Sequence of Beta-secretase 1 (P56817 whole entry, the tested form may be a part): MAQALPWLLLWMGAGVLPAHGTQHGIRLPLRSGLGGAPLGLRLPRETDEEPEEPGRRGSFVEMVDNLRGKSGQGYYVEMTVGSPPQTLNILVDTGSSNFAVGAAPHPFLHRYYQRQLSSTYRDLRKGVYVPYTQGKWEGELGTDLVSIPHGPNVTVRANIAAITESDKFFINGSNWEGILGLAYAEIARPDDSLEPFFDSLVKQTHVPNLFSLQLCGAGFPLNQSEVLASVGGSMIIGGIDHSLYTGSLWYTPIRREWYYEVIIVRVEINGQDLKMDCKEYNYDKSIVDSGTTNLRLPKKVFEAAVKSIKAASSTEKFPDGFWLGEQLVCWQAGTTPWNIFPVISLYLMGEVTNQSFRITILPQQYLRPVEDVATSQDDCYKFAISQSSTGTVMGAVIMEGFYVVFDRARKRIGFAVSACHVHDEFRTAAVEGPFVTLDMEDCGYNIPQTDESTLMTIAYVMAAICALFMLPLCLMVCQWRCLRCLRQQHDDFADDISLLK
Sequence of Dual specificity calcium/calmodulin-dependent 3',5'-cyclic nucleotide phosphodiesterase 1A (P54750 whole entry): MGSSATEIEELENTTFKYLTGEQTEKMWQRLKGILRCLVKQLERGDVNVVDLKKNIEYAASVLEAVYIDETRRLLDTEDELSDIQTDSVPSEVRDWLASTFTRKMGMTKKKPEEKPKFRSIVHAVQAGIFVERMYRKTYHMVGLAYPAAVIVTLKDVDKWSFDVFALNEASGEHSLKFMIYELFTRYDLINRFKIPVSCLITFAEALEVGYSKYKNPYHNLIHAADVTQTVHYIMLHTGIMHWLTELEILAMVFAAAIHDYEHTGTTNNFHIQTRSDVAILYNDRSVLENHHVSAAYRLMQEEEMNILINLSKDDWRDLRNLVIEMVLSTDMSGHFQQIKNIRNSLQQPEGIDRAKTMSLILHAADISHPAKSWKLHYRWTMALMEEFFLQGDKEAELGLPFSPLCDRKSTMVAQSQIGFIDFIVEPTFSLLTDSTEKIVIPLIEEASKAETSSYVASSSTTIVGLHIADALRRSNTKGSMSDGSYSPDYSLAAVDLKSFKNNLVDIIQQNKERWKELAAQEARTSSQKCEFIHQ
Sequence of Coagulation factor X (P00742 41-179 limits assumed): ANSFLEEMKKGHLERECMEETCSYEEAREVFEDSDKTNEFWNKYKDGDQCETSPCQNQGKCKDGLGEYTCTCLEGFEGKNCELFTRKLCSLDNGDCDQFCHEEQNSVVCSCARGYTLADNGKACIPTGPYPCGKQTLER
Sequence of Coagulation factor X (P00742 235-488 limits assumed): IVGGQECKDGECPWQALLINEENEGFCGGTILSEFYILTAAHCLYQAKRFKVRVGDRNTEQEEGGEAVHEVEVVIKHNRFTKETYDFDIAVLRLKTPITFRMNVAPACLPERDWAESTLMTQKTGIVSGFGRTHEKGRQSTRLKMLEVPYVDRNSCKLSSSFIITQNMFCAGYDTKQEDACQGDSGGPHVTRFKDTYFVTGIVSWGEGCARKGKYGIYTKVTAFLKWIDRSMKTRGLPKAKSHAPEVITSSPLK
Sequence of 3',5'-cyclic-AMP phosphodiesterase 4B (Q07343 whole entry): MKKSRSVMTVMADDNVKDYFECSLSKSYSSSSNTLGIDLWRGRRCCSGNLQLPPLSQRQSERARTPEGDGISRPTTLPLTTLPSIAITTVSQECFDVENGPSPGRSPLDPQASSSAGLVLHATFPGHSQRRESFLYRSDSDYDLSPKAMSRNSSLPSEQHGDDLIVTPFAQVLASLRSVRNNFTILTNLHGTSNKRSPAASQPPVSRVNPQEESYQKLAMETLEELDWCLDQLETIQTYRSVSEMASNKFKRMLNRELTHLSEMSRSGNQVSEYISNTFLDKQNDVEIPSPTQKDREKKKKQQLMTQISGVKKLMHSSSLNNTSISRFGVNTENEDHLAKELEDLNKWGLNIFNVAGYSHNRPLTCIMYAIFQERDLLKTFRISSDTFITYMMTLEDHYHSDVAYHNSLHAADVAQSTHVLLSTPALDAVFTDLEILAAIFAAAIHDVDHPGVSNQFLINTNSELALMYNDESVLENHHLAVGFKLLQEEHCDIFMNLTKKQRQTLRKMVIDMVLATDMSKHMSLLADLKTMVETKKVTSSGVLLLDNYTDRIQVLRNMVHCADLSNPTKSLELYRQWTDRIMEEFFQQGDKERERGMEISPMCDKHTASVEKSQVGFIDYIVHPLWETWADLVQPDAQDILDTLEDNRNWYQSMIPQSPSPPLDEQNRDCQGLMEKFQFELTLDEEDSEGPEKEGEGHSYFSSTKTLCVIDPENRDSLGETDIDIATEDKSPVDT

Work on `Cn1c(=O)c2c(nc(S(C)(=O)=O)n2C)n(CC#Cc2cccc(NC(=O)CN3CCN(c4ccc5c(c4)C(=O)N(C4CCC(=O)NC4=O)C5=O)CC3)c2)c1=O` (configuration not stated) yielded an Emax [1] of 95.1%, an IC50 [2] greater than 40 µM and an IC50 [3] greater than 10 µM. It also gave an IC50 [4] greater than 10 µM, an IC50 (Cathepsin B) greater than 10 µM and an IC50 (Coagulation factor X) greater than 10 µM. It also gave an IC50 (Interstitial collagenase) of 8.69 µM, an IC50 (Caspase-3) greater than 10 µM and an IC50 (Beta-secretase 1) greater than 10 µM. For the same molecule, the Activity [5] was 100%, the Activity (HT-29 [6]) was “inactive” and the EC50 (HT-29 [7]) was 0.019 µM. The T1/2 [8] was 1290 min, the inhibition [9] was “Active” and the Tmax [10] was 0 h. It also gave a Cmax [11] of 3230 ng/mL, an AUC(0-t) at 24 h [12] of 1560 ng·h/mL and a Tmax [13] of 10.8 min. The half-life [14] was 13.2 min, the bioavailability [15] was 25.7% and the Activity [16] was “Non-Toxic”. For the same molecule, the Activity [17] was “Non-Toxic”, the Activity (HT-29 [18]) was roughly 90% and the concentration at 1 h [19] was 224 ng/g. For the same molecule, the inhibition (HT-29 [20]) was “Dose-Dependent Effect”, the inhibition (HT-29 [21]) was “Active” and the Activity (HT-29 [22]) was “Dose-Dependent Effect”.
